Experimental data: US12077503B2, “Substituted cyclic amides and their use as herbicides” (FMC CORPORATION, priority 2015, dated 2024)

Key:
Format in all cases: in vivo
[1] = tested on: barnyardgrass (Echinochloa crus-galli); assay: Test A preemergence; details: Echinochloa crus-galli, pre-emergence, 240 h, preemergence, 0 to 100 scale where 0 is no effect and 100 is complete control, read-out: Barnyardgrass plant response rating
How it was run: (§1)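 In a loam soil and sand blend, planted seeds got a preemergence directed soil spray, and young plants at the one- to two-leaf stage, 2–10 cm high, got a postemergence application; ~10 d greenhouse hold; injury rated visually, 0 = none, 100 = complete control.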

[2] = tested on: Galium (catchweed bedstraw, Galium aparine); assay: Test A postemergence; details: Galium, post-emergence, 240 h, postemergence
How it was run: as §1

Kochia (Kochia scoparia) = assay: Test A postemergence; details: Bassia scoparia, post-emergence, 240 h, postemergence
How it was run: as §1

[3] = tested on: barnyardgrass (Echinochloa crus-galli); assay: Test A postemergence; details: Echinochloa crus-galli, post-emergence, 240 h, postemergence
How it was run: as §1

[4] = tested on: blackgrass (Alopecurus myosuroides); assay: Test A postemergence; details: Alopecurus myosuroides, post-emergence, 240 h, postemergence
How it was run: as §1

corn (Zea mays) = assay: Test A postemergence; details: Zea mays, post-emergence, 240 h, postemergence
How it was run: as §1

[5] = tested on: giant foxtail (Setaria faberii); assay: Test A postemergence; details: Setaria faberi, post-emergence, 240 h, postemergence
How it was run: as §1

[6] = tested on: pigweed (Amaranthus retroflexus); assay: Test A postemergence; details: Amaranthus retroflexus, post-emergence, 240 h, postemergence
How it was run: as §1

[7] = tested on: ragweed (common ragweed, Ambrosia elatior); assay: Test A postemergence; details: Ambrosia artemisiifolia, post-emergence, 240 h, postemergence
How it was run: as §1

[8] = tested on: ryegrass, Italian (Italian ryegrass, Lolium multiflorum); assay: Test A postemergence; details: Lolium multiflorum, post-emergence, 240 h, postemergence
How it was run: as §1

[9] = tested on: wheat (Triticum aestivum); assay: Test A postemergence; details: Triticum aestivum, post-emergence, 240 h, postemergence
How it was run: as §1

[10] = tested on: barnyardgrass (Echinochloa crus-galli); assay: Test B flooded paddy test; details: Echinochloa crus-galli, 250 g ai/ha, Flood; 0 to 100 scale where 0 is no effect and 100 is complete control; read-out: Barnyardgrass plant response rating
How it was run: (§2)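 2-leaf plants; pots flooded 3 cm over soil; cpd added to paddy water; depth held; greenhouse 13–15 d; visual rating vs controls, 0 = no effect, 100 = complete control.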

[11] = tested on: ducksalad (Heteranthera limosa); assay: Test B flooded paddy test; details: Heteranthera limosa, 250 g ai/ha, Flood; 0 to 100 scale where 0 is no effect and 100 is complete control; read-out: Ducksalad plant response rating
How it was run: as §2

rice (Oryra sativa) = assay: Test B flooded paddy test; details: Oryza sativa, 250 g ai/ha, Flood; 0 to 100 scale where 0 is no effect and 100 is complete control; read-out: Rice plant response rating
How it was run: as §2

[12] = tested on: sedge, umbrella (small-flower umbrella sedge, Cyperus difformis); assay: Test B flooded paddy test; details: Cyperus difformis, 250 g ai/ha, Flood; 0 to 100 scale where 0 is no effect and 100 is complete control; read-out: Sedge, Umbrella plant response rating
How it was run: as §2

O=C1NC[C@H](c2nccs2)[C@H]1C(=O)Nc1cccc(F)c1F [Compound 1182]
0%: pest or weed control at 125 g/ha ([1]; 125 g ai/ha, approx. 10 d) | pest or weed control at 500 g/ha ([1]; 500 g ai/ha) | pest or weed control at 125 g/ha ([2]; 125 g ai/ha, visual injury vs untreated controls after approx. 10 d, 0 = no effect, 100 = complete control, read-out: Galium plant response rating (0 to 100 scale)) | pest or weed control at 500 g/ha ([2]; 500 g ai/ha, 0 to 100 scale, 0 is no effect, 100 is complete control, read-out: Galium plant response rating) | pest or weed control at 125 g/ha (Kochia (Kochia scoparia); 125 g ai/ha, visual injury vs untreated controls after approx. 10 d, 0 = no effect, 100 = complete control, read-out: Kochia plant response rating (0 to 100 scale)) | pest or weed control at 500 g/ha (Kochia (Kochia scoparia); 500 g ai/ha, 0 to 100 scale, 0 is no effect, 100 is complete control, read-out: Kochia plant response rating) | pest or weed control at 125 g/ha ([3]; 125 g ai/ha, visual injury vs untreated controls after approx. 10 d, 0 = no effect, 100 = complete control, read-out: Barnyardgrass plant response rating (0 to 100 scale)) | pest or weed control at 500 g/ha ([3]; 500 g ai/ha, 0 to 100 scale, 0 is no effect, 100 is complete control, read-out: Barnyardgrass plant response rating) | pest or weed control at 125 g/ha ([4]; 125 g ai/ha, visual injury vs untreated controls after approx. 10 d, 0 = no effect, 100 = complete control, read-out: Blackgrass plant response rating (0 to 100 scale)) | pest or weed control at 500 g/ha ([4]; 500 g ai/ha, 0 to 100 scale, 0 is no effect, 100 is complete control, read-out: Blackgrass plant response rating) | plant injury at 125 g/ha (corn (Zea mays); 125 g ai/ha, visual injury vs untreated controls after approx. 10 d, 0 = no effect, 100 = complete control, read-out: Corn plant response rating (0 to 100 scale)) | plant injury at 500 g/ha (corn (Zea mays); 500 g ai/ha, 0 to 100 scale, 0 is no effect, 100 is complete control, read-out: Corn plant response rating) | pest or weed control at 125 g/ha ([5]; 125 g ai/ha, visual injury vs untreated controls after approx. 10 d, 0 = no effect, 100 = complete control, read-out: Foxtail, Giant plant response rating (0 to 100 scale)) | pest or weed control at 500 g/ha ([5]; 500 g ai/ha, 0 to 100 scale, 0 is no effect, 100 is complete control, read-out: Foxtail, Giant plant response rating) | pest or weed control at 125 g/ha ([6]; 125 g ai/ha, visual injury vs untreated controls after approx. 10 d, 0 = no effect, 100 = complete control, read-out: Pigweed plant response rating (0 to 100 scale)) | pest or weed control at 500 g/ha ([6]; 500 g ai/ha, 0 to 100 scale, 0 is no effect, 100 is complete control, read-out: Pigweed plant response rating) | pest or weed control at 125 g/ha ([7]; 125 g ai/ha, visual injury vs untreated controls after approx. 10 d, 0 = no effect, 100 = complete control, read-out: Ragweed plant response rating (0 to 100 scale)) | pest or weed control at 500 g/ha ([7]; 500 g ai/ha, 0 to 100 scale, 0 is no effect, 100 is complete control, read-out: Ragweed plant response rating) | pest or weed control at 125 g/ha ([8]; 125 g ai/ha, visual injury vs untreated controls after approx. 10 d, 0 = no effect, 100 = complete control, read-out: Ryegrass, Italian plant response rating (0 to 100 scale)) | pest or weed control at 500 g/ha ([8]; 500 g ai/ha, 0 to 100 scale, 0 is no effect, 100 is complete control, read-out: Ryegrass, Italian plant response rating) | plant injury at 125 g/ha ([9]; 125 g ai/ha, visual injury vs untreated controls after approx. 10 d, 0 = no effect, 100 = complete control, read-out: Wheat plant response rating (0 to 100 scale)) | plant injury at 500 g/ha ([9]; 500 g ai/ha, 0 to 100 scale, 0 is no effect, 100 is complete control, read-out: Wheat plant response rating) | pest or weed control at 250 g/ha [10] | pest or weed control at 250 g/ha [11] | pest or weed control at 250 g/ha (rice (Oryra sativa)) | pest or weed control at 250 g/ha [12]
